pIC50: −log10 of the molar value. Bounds are passed on as bounds.

Human complement C1s enzyme, sequence (P09871 438-688 limits assumed): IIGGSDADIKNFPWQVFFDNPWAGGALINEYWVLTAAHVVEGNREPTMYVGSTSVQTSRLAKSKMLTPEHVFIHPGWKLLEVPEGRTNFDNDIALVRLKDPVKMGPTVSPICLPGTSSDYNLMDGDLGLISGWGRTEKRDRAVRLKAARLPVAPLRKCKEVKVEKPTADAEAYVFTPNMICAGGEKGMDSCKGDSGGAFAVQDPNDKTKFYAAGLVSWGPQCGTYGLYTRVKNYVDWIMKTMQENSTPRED
Human complement C1s enzyme, sequence (P09871 16-437 partner limits assumed): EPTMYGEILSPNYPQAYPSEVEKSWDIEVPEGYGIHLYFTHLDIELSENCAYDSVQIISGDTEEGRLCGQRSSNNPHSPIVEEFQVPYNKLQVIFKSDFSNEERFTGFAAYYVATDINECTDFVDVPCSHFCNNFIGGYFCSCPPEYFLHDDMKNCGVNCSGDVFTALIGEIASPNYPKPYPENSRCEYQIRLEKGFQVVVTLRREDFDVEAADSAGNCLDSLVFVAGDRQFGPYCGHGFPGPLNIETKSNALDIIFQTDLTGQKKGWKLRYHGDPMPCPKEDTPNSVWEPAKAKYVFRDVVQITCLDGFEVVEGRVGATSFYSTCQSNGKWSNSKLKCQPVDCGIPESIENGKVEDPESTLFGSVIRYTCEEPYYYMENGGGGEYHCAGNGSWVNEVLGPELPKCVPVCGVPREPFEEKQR

The target of this experiment is Human complement C1s enzyme (Homo sapiens (Human), UniProt P09871). The experiment is described as follows: Human C1s enzyme assay. Type of experiment: biochemical. As to conditions: Human complement C1s enzyme 1.16 nM, substrate Z-L-Lys-SBzl 100 μM, assay of Example 3; read-out: IC50 (Stars). The procedure, abridged:
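Purified serum-derived human C1s (1.16 nM final) preincubated 5 min at room temperature with compound in 50 mM Tris, 1 M NaCl, pH 7.5. Z-L-Lys-SBzl thioester substrate and DTNB added (100 μM each, final); A405 read every 30 s for 30 min. IC50 from nonlinear regression of reaction rates against compound concentration.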
Turning to `C[C@@H](NC(=O)[C@@H]1CC2(CN1C(=O)CNC(=O)c1ccc3sc4ccccc4c3c1)OCCO2)c1cc(C(=N)N)cs1` [Compound 254, (S)—N—((R)-1-(4-carbamimidoylthiophen-2-yl)ethyl)-7-((dibenzo[b,d]thiophene-2-carbonyl)glycyl)-1,4-dioxa-7-azaspiro[4.4]nonane-8-carboxamide], the pIC50 is > 7.00.

As for `N=C(N)c1csc(CNC(=O)[C@@H]2CC3(CN2C(=O)CN2CCc4cc(-c5ccc(F)cc5)ccc4C2=O)OCCO3)c1` [Compound 255, (S)—N-((4-carbamimidoylthiophen-2-yl)methyl)-7-(2-(6-(4-fluorophenyl)-1-oxo-3,4-dihydroisoquinolin-2(1H)-yl)acetyl)-1,4-dioxa-7-azaspiro[4.4]nonane-8-carboxamide], the pIC50 was < 6.00.

For `N=C(N)c1csc(CNC(=O)[C@@H]2CC3(CN2C(=O)CN2CCc4cc(-c5ccccc5)ccc4C2=O)OCCO3)c1` [Compound 256, (S)—N-((4-carbamimidoylthiophen-2-yl)methyl)-7-(2-(1-oxo-6-phenyl-3,4-dihydroisoquinolin-2(1H)-yl)acetyl)-1,4-dioxa-7-azaspiro[4.4]nonane-8-carboxamide], the pIC50 is > 7.00.

In the case of `Cc1ccc(-c2ccc(C(=O)NCC(=O)N3CC4(C[C@H]3C(=O)NCc3cc(C(=N)N)cs3)OCCO4)cc2)c(C)c1` [Compound 257, (S)—N-((4-carbamimidoylthiophen-2-yl)methyl)-7-((2′,4′-dimethyl-[1,1′-biphenyl]-4-carbonyl)glycyl)-1,4-dioxa-7-azaspiro[4.4]nonane-8-carboxamide], the negative logarithm of the IC50 (pIC50) was > 7.00.

`CCCCCCOC(=O)/N=C(/N)c1csc([C@@H](C)NC(=O)[C@@H]2C[C@@H](OC(F)F)CN2C(=O)CNC(=O)c2ccc3c(c2)-c2ccccc2C3(F)F)c1` [Compound 258, hexyl ((E)-amino(5-((R)-1-((2S,4R)-1-((9,9-difluoro-9H-fluorene-3-carbonyl)glycyl)-4-(difluoromethoxy)pyrrolidine-2-carboxamido)ethyl)thiophen-3-yl)methylene)carbamate]: the pIC50 is > 7.00.

`C[C@@]12C[C@@H]1N(C(=O)CNC(=O)c1ccc3c(c1)-c1ccccc1C3(F)F)[C@H](C(=O)Nc1cc(C(=N)N)cs1)C2` [Compound 259, (1S,3S,5S)—N-(4-carbamimidoylthiophen-2-yl)-2-((9,9-difluoro-9H-fluorene-3-carbonyl)glycyl)-5-methyl-2-azabicyclo[3.1.0]hexane-3-carboxamide]: the pIC50 was < 6.00.

Consider `C[C@@H](NC(=O)[C@@H]1C[C@](F)(Cn2ccnn2)CN1C(=O)CNC(=O)c1ccc2c(c1)-c1ccccc1C2(F)F)c1cc(C(=N)N)cs1` [Compound 260, (2S,4R)-4-((1H-1,2,3-triazol-1-yl)methyl)-N—((R)-1-(4-carbamimidoylthiophen-2-yl)ethyl)-1-((9,9-difluoro-9H-fluorene-3-carbonyl)glycyl)-4-fluoropyrrolidine-2-carboxamide], for which the negative-log IC50 (pIC50) is > 7.00.

Take `C[C@@H](NC(=O)[C@@H]1CC2(CN1C(=O)CNC(=O)c1ccc3c(c1)-c1ccccc1S3(=O)=O)OCCO2)c1cc(C(=N)N)cs1` [Compound 261, (S)—N—((R)-1-(4-carbamimidoylthiophen-2-yl)ethyl)-7-((5,5-dioxidodibenzo[b,d]thiophene-2-carbonyl)glycyl)-1,4-dioxa-7-azaspiro[4.4]nonane-8-carboxamide]: the negative-log IC50 (pIC50) was > 7.00.

As for `C[C@@H](NC(=O)[C@@H]1C[C@@H](OC(F)F)CN1C(=O)CNC(=O)c1ccc2c(c1)C(F)(F)c1ccccc1-2)c1cc(C(=N)N)cs1` [Compound 262, (2S,4R)—N—((R)-1-(4-carbamimidoylthiophen-2-yl)ethyl)-1-((9,9-difluoro-9H-fluorene-2-carbonyl)glycyl)-4-(difluoromethoxy)pyrrolidine-2-carboxamide], the pIC50 is > 7.00.

Take `C[C@@H](NC(=O)[C@@H]1C[C@](F)(CF)CN1C(=O)CNC(=O)c1ccc2c(c1)C(F)(F)c1ccccc1-2)c1cc(C(=N)N)cs1` [Compound 263, (2S,4R)—N—((R)-1-(4-carbamimidoylthiophen-2-yl)ethyl)-1-((9,9-difluoro-9H-fluorene-2-carbonyl)glycyl)-4-fluoro-4-(fluoromethyl)pyrrolidine-2-carboxamide]: the pIC50 was > 7.00.

Turning to `COC[C@@]1(F)C[C@@H](C(=O)N[C@H](C)c2cc(C(=N)N)cs2)N(C(=O)CNC(=O)c2ccc3c(c2)C(F)(F)c2ccccc2-3)C1` [Compound 264, (2S,4R)—N—((R)-1-(4-carbamimidoylthiophen-2-yl)ethyl)-1-((9,9-difluoro-9H-fluorene-2-carbonyl)glycyl)-4-fluoro-4-(methoxymethyl)pyrrolidine-2-carboxamide], the pIC50 is > 7.00.

On to `C[C@@H](NC(=O)[C@@H]1C[C@@H](S(C)(=O)=O)CN1C(=O)CNC(=O)c1ccc2c(c1)C(F)(F)c1ccccc1-2)c1cc(C(=N)N)cs1` [Compound 265, (2S,4R)—N—((R)-1-(4-carbamimidoylthiophen-2-yl)ethyl)-1-((9,9-difluoro-9H-fluorene-2-carbonyl)glycyl)-4-(methylsulfonyl)pyrrolidine-2-carboxamide], for which the pIC50 is > 7.00.

As to `N=C(N)c1csc(CNC(=O)[C@@H]2CC3(CN2C(=O)CNC(=O)c2ccc(-c4ccncc4F)cc2)OCCO3)c1` [Compound 266, (S)—N-((4-carbamimidoylthiophen-2-yl)methyl)-7-((4-(3-fluoropyridin-4-yl)benzoyl)glycyl)-1,4-dioxa-7-azaspiro[4.4]nonane-8-carboxamide], the pIC50 was > 7.00.

For the compound `C[C@@H](NC(=O)[C@@H]1C[C@]2(CN3CCOCC3)C[C@@H]2N1C(=O)CNC(=O)c1ccc2c(c1)-c1ccccc1C2(F)F)c1cc(C(=N)N)cs1` [Compound 267, (1S,3S,5S)—N—((R)-1-(4-carbamimidoylthiophen-2-yl)ethyl)-2-((9,9-difluoro-9H-fluorene-3-carbonyl)glycyl)-5-(morpholinomethyl)-2-azabicyclo [3.1.0]hexane-3-carboxamide], the pIC50 was > 7.00.

Take `C[C@@H](NC(=O)[C@@H]1C[C@@](C)(F)CN1C(=O)CNC(=O)c1ccc2c(c1)-c1ccccc1C2(F)F)c1cc(C(=N)N)cs1` [Compound 268, (2S,4R)—N—((R)-1-(4-carbamimidoylthiophen-2-yl)ethyl)-1-((9,9-difluoro-9H-fluorene-3-carbonyl)glycyl)-4-fluoro-4-methylpyrrolidine-2-carboxamide]: the pIC50 is > 7.00.

In the case of `CC(=O)NCCNC[C@@]1(F)C[C@@H](C(=O)N[C@H](C)c2cc(C(=N)N)cs2)N(C(=O)CNC(=O)c2ccc3c(c2)-c2ccccc2C3(F)F)C1` [Compound 269, (2S,4S)-4-(((2-acetamidoethyl)amino)methyl)-N—((R)-1-(4-carbamimidoylthiophen-2-yl)ethyl)-1-((9,9-difluoro-9H-fluorene-3-carbonyl)glycyl)-4-fluoropyrrolidine-2-carboxamide], the pIC50 is > 7.00.

On to `C[C@@H](NC(=O)[C@@H]1CC(=C(F)F)CN1C(=O)CNC(=O)c1ccc2c(c1)-c1ccccc1C2(F)F)c1cc(C(=N)N)cs1` [Compound 270, (S)—N—((R)-1-(4-carbamimidoylthiophen-2-yl)ethyl)-1-((9,9-difluoro-9H-fluorene-3-carbonyl)glycyl)-4-(difluoromethylene)pyrrolidine-2-carboxamide], for which the pIC50 was > 7.00.

For `C[C@@H](NC(=O)[C@@H]1CC2(CN1C(=O)CNC(=O)c1ccc3c(c1)Oc1ccccc1S3)OCCO2)c1cc(C(=N)N)cs1` [Compound 271, (S)—N—((R)-1-(4-carbamimidoylthiophen-2-yl)ethyl)-7-((phenoxathiine-3-carbonyl)glycyl)-1,4-dioxa-7-azaspiro[4.4]nonane-8-carboxamide], the pIC50 is > 7.00.

Turning to `C[C@@H](NC(=O)[C@@H]1CC2(CN1C(=O)CNC(=O)c1ccc(O)cc1)OCCO2)c1cc(C(=N)N)cs1` [Compound 272, (S)—N—((R)-1-(4-carbamimidoylthiophen-2-yl)ethyl)-7-((4-hydroxybenzoyl)glycyl)-1,4-dioxa-7-azaspiro[4.4]nonane-8-carboxamide], the pIC50 was > 7.00.

With `N=C(N)c1csc(CNC(=O)[C@@H]2CC3(CNC3)CN2C(=O)CNC(=O)CCCOc2ccccc2)c1` [Compound 273, (S)—N-((4-carbamimidoylthiophen-2-yl)methyl)-6-((4-phenoxybutanoyl)glycyl)-2,6-diazaspiro[3.4]octane-7-carboxamide], the negative logarithm of the IC50 (pIC50) is > 7.00.

For `C[C@@H](NC(=O)[C@@H]1C[C@]2(Cn3ccnn3)C[C@@H]2N1C(=O)CNC(=O)c1ccc2c(c1)-c1ccccc1C2(F)F)c1cc(C(=N)N)cs1` [Compound 274, (1S,3S,5S)-5-((1H-1,2,3-triazol-1-yl)methyl)-N—((R)-1-(4-carbamimidoylthiophen-2-yl)ethyl)-2-((9,9-difluoro-9H-fluorene-3-carbonyl)glycyl)-2-azabicyclo[3.1.0]hexane-3-carboxamide], the pIC50 was > 7.00.

For the compound `C[C@@H](NC(=O)[C@@H]1C[C@]2(C)C[C@@H]2N1C(=O)CNC(=O)c1ccc(Oc2ccccc2)cc1)c1cc(CC(=N)N)cs1` [Compound 276, (1S,3S,5S)—N—((R)-1-(4-(2-amino-2-iminoethyl)thiophen-2-yl)ethyl)-5-methyl-2-((4-phenoxybenzoyl)glycyl)-2-azabicyclo[3.1.0]hexane-3-carboxamide], the pIC50 is > 7.00.

Regarding `COC1c2ccccc2-c2cc(C(=O)NCC(=O)N3CC4(C[C@H]3C(=O)N[C@H](C)c3cc(C(=N)N)cs3)OCCO4)ccc21` (stereo partly drawn) [Compound 277, (8S)—N—((R)-1-(4-carbamimidoylthiophen-2-yl)ethyl)-7-((9-methoxy-9H-fluorene-3-carbonyl)glycyl)-1,4-dioxa-7-azaspiro[4.4]nonane-8-carboxamide], the pIC50 is > 7.00.

In general, pIC50 refers to the IC50 on a negative log10 scale, so that one unit is a factor of ten.

The values are drawn from patent US20250346585A1 (Alexion Pharmaceuticals, Inc., priority 2022, published 2025).
